Data published in US20020111274A1, “1-alkyl-3-[1-(substituted phenyl) benzotriazol-6-yl] uracils” (BASF Aktiengesellschaft, priority 2000, published 2002).

What was measured:
Set-up in all cases: scale not given here
[1] = test system: TRZAWR Wheat, Winter, cv Riband; assay: Postemergence herbicidal evaluation, TRZAWR; type: in vivo, Triticum aestivum; settings: postemergence spray, rated about two-three weeks after treatment
How it was run: (§1)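 Seedlings grown about two weeks were sprayed with compound in 80/20 acetone/water containing 1.0% methylated seed oil, at the equivalent of about 0.006 to 0.400 kg/ha, through a nozzle at 40 psi. Plants were kept in the greenhouse and rated visually about two to three weeks after treatment.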

GLXMAW Soybean, Williams [2] = assay: Postemergence herbicidal evaluation, GLXMAW; type: in vivo, Glycine max, (L.) Merr. cv Williams; settings: postemergence spray, rated about two-three weeks after treatment
How it was run: as §1

[3] = test system: CHEAL Lambsquarters, Common; assay: Preemergence herbicidal evaluation, CHEAL; type: in vivo, Chenopodium album, L.; settings: preemergence
How it was run: (§2)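 First, seed is blended with potting soil and sown over roughly an inch of soil per cup. Next, the surface is sprayed with an aqueous acetone solution delivering about 0.013–0.800 kg/ha. Finally, cups are grown in the greenhouse and rated after 4–5 weeks.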

SETVI Foxtail, Green [4] = assay: Preemergence herbicidal evaluation, SETVI; type: in vivo, Setaria viridis, (L.) Beau; settings: preemergence
How it was run: as §2

AMBEL Ragweed, Common [5] = assay: Preemergence herbicidal evaluation, AMBEL; type: in vivo, Ambrosia artemisifolia, L.; settings: preemergence
How it was run: as §2

[6] = test system: IPOHE Morningglory, Ivyleaf; assay: Preemergence herbicidal evaluation, IPOHE; type: in vivo, Ipomoea hederacea, (L.) Jacq.; settings: preemergence
How it was run: as §2

ORYSAT Rice, Tebonnet [7] = assay: Postemergence herbicidal evaluation, ORYSAT; type: in vivo, Oryza sativa, (L.); settings: postemergence spray, rated about two-three weeks after treatment
How it was run: as §1

GALAP Galium [8] = assay: Preemergence herbicidal evaluation, GALAP; type: in vivo, Galium aparine; settings: preemergence
How it was run: as §2

ZEAMX Corn, Field [9] = assay: Postemergence herbicidal evaluation, ZEAMX; type: in vivo, Zea mays, L. (Sammel-Bezeichnung); settings: postemergence spray, rated about two-three weeks after treatment
How it was run: as §1

CASOB Sicklepod [10] = assay: Preemergence herbicidal evaluation, CASOB; type: in vivo, Cassia obtusifolia, L.; settings: preemergence
How it was run: as §2

CASOB Sicklepod [11] = assay: Postemergence herbicidal evaluation, CASOB; type: in vivo, Cassia obtusifolia, L.; settings: postemergence spray, rated about two-three weeks after treatment
How it was run: as §1

ABUTH Velvetleaf [12] = assay: Preemergence herbicidal evaluation, ABUTH; type: in vivo, Abutilon theophrasti, Medic.; settings: preemergence
How it was run: as §2

ZEAMX Corn, Field [13] = assay: Preemergence herbicidal evaluation, ZEAMX; type: in vivo, Zea mays, L. (Sammel-Bezeichnung); settings: preemergence
How it was run: as §2

ABUTH Velvetleaf [14] = assay: Postemergence herbicidal evaluation, ABUTH; type: in vivo, Abutilon theophrasti, Medic.; settings: postemergence spray, rated about two-three weeks after treatment
How it was run: as §1

ECHOG Barnyardgrass [15] = assay: Postemergence herbicidal evaluation, ECHOG; type: in vivo, Echinochloa crus-galli, (L.) Beau; settings: postemergence spray, rated about two-three weeks after treatment
How it was run: as §1

ORYSAT Rice, Tebonnet [16] = assay: Preemergence herbicidal evaluation, ORYSAT; type: in vivo, Oryza sativa, (L.); settings: preemergence
How it was run: as §2

GALAP Galium [17] = assay: Postemergence herbicidal evaluation, GALAP; type: in vivo, Galium aparine; settings: postemergence spray, rated about two-three weeks after treatment
How it was run: as §1

GLXMAW Soybean, Williams [18] = assay: Preemergence herbicidal evaluation, GLXMAW; type: in vivo, Glycine max, (L.) Merr. cv Williams; settings: preemergence
How it was run: as §2

[19] = test system: TRZAWR Wheat, Winter, cv Riband; assay: Preemergence herbicidal evaluation, TRZAWR; type: in vivo, Triticum aestivum; settings: preemergence
How it was run: as §2

[20] = test system: IPOHE Morningglory, Ivyleaf; assay: Postemergence herbicidal evaluation, IPOHE; type: in vivo, Ipomoea hederacea, (L.) Jacq.; settings: postemergence spray, rated about two-three weeks after treatment
How it was run: as §1

AMBEL Ragweed, Common [21] = assay: Postemergence herbicidal evaluation, AMBEL; type: in vivo, Ambrosia artemisifolia, L.; settings: postemergence spray, rated about two-three weeks after treatment
How it was run: as §1

SETVI Foxtail, Green [22] = assay: Postemergence herbicidal evaluation, SETVI; type: in vivo, Setaria viridis, (L.) Beau; settings: postemergence spray, rated about two-three weeks after treatment
How it was run: as §1

[23] = test system: CHEAL Lambsquarters, Common; assay: Postemergence herbicidal evaluation, CHEAL; type: in vivo, Chenopodium album, L.; settings: postemergence spray, rated about two-three weeks after treatment
How it was run: as §1

ECHOG Barnyardgrass [24] = assay: Preemergence herbicidal evaluation, ECHOG; type: in vivo, Echinochloa crus-galli, (L.) Beau; settings: preemergence
How it was run: as §2

COC(=O)COc1ccccc1-n1nnc2cc(F)c(-n3c(=O)cc(C(F)(F)F)n(C)c3=O)cc21 [Example 35]
7.5: Postemergence herbicidal rating GLXMAW (GLXMAW Soybean, Williams [2]; 0.062 kg/ha) | Postemergence herbicidal rating ZEAMX (ZEAMX Corn, Field [9]; 0.062 kg/ha)
8.0: Postemergence herbicidal rating SETVI (SETVI Foxtail, Green [22]; 0.062 kg/ha)
6.5: SETVI herbicidal rating (SETVI Foxtail, Green [4]; rate 0.062 kg/ha)
5.5: Postemergence herbicidal rating TRZAWR ([1]; 0.032 kg/ha) | Postemergence herbicidal rating ZEAMX (ZEAMX Corn, Field [9]; 0.032 kg/ha) | ABUTH herbicidal rating (ABUTH Velvetleaf [12]; rate 0.125 kg/ha)
1.0: Postemergence herbicidal rating CASOB (CASOB Sicklepod [11]; 0.008 kg/ha) | Postemergence herbicidal rating CASOB (CASOB Sicklepod [11]; 0.016 kg/ha) | ZEAMX herbicidal rating (ZEAMX Corn, Field [13]; rate 0.062 kg/ha) | Postemergence herbicidal rating GALAP (GALAP Galium [17]; 0.008 kg/ha) | Postemergence herbicidal rating GALAP (GALAP Galium [17]; 0.016 kg/ha) | GLXMAW herbicidal rating (GLXMAW Soybean, Williams [18]; rate 0.016 kg/ha) | TRZAWR herbicidal rating ([19]; rate 0.062 kg/ha) | TRZAWR herbicidal rating ([19]; rate 0.125 kg/ha) | Postemergence herbicidal rating SETVI (SETVI Foxtail, Green [22]; 0.008 kg/ha) | Postemergence herbicidal rating CHEAL ([23]; 0.008 kg/ha)
9.0: CHEAL herbicidal rating ([3]; rate 0.032 kg/ha) | CHEAL herbicidal rating ([3]; rate 0.062 kg/ha) | CHEAL herbicidal rating ([3]; rate 0.125 kg/ha) | SETVI herbicidal rating (SETVI Foxtail, Green [4]; rate 0.125 kg/ha) | IPOHE herbicidal rating ([6]; rate 0.125 kg/ha) | ABUTH herbicidal rating (ABUTH Velvetleaf [12]; rate 0.062 kg/ha) | Postemergence herbicidal rating ABUTH (ABUTH Velvetleaf [14]; 0.032 kg/ha) | Postemergence herbicidal rating ABUTH (ABUTH Velvetleaf [14]; 0.062 kg/ha) | Postemergence herbicidal rating ECHCG (ECHOG Barnyardgrass [15]; 0.062 kg/ha) | Postemergence herbicidal rating IPOHE ([20]; 0.008 kg/ha) | Postemergence herbicidal rating IPOHE ([20]; 0.032 kg/ha) | Postemergence herbicidal rating IPOHE ([20]; 0.062 kg/ha) | Postemergence herbicidal rating AMBEL (AMBEL Ragweed, Common [21]; 0.032 kg/ha) | Postemergence herbicidal rating AMBEL (AMBEL Ragweed, Common [21]; 0.062 kg/ha) | Postemergence herbicidal rating SETVI (SETVI Foxtail, Green [22]; 0.016 kg/ha) | Postemergence herbicidal rating SETVI (SETVI Foxtail, Green [22]; 0.032 kg/ha)
7.0: Postemergence herbicidal rating TRZAWR ([1]; 0.062 kg/ha) | Postemergence herbicidal rating ORYSAT (ORYSAT Rice, Tebonnet [7]; 0.062 kg/ha) | Postemergence herbicidal rating ECHCG (ECHOG Barnyardgrass [15]; 0.032 kg/ha) | Postemergence herbicidal rating CHEAL ([23]; 0.062 kg/ha)
3.0: Postemergence herbicidal rating TRZAWR ([1]; 0.016 kg/ha) | Postemergence herbicidal rating ORYSAT (ORYSAT Rice, Tebonnet [7]; 0.008 kg/ha) | ZEAMX herbicidal rating (ZEAMX Corn, Field [13]; rate 0.125 kg/ha) | Postemergence herbicidal rating GALAP (GALAP Galium [17]; 0.032 kg/ha)
3.5: Postemergence herbicidal rating TRZAWR ([1]; 0.008 kg/ha) | AMBEL herbicidal rating (AMBEL Ragweed, Common [5]; rate 0.062 kg/ha) | Postemergence herbicidal rating ORYSAT (ORYSAT Rice, Tebonnet [7]; 0.016 kg/ha) | ORYSAT herbicidal rating (ORYSAT Rice, Tebonnet [16]; rate 0.062 kg/ha)
0.0: CHEAL herbicidal rating ([3]; rate 0.016 kg/ha) | SETVI herbicidal rating (SETVI Foxtail, Green [4]; rate 0.016 kg/ha) | AMBEL herbicidal rating (AMBEL Ragweed, Common [5]; rate 0.016 kg/ha) | AMBEL herbicidal rating (AMBEL Ragweed, Common [5]; rate 0.032 kg/ha) | IPOHE herbicidal rating ([6]; rate 0.016 kg/ha) | GALAP herbicidal rating (GALAP Galium [8]; rate 0.016 kg/ha) | GALAP herbicidal rating (GALAP Galium [8]; rate 0.032 kg/ha) | GALAP herbicidal rating (GALAP Galium [8]; rate 0.062 kg/ha) | CASOB herbicidal rating (CASOB Sicklepod [10]; rate 0.016 kg/ha) | CASOB herbicidal rating (CASOB Sicklepod [10]; rate 0.032 kg/ha) | ABUTH herbicidal rating (ABUTH Velvetleaf [12]; rate 0.016 kg/ha) | ZEAMX herbicidal rating (ZEAMX Corn, Field [13]; rate 0.016 kg/ha) | ZEAMX herbicidal rating (ZEAMX Corn, Field [13]; rate 0.032 kg/ha) | ORYSAT herbicidal rating (ORYSAT Rice, Tebonnet [16]; rate 0.016 kg/ha) | ORYSAT herbicidal rating (ORYSAT Rice, Tebonnet [16]; rate 0.032 kg/ha) | GLXMAW herbicidal rating (GLXMAW Soybean, Williams [18]; rate 0.032 kg/ha) | TRZAWR herbicidal rating ([19]; rate 0.016 kg/ha) | TRZAWR herbicidal rating ([19]; rate 0.032 kg/ha) | ECHCG herbicidal rating (ECHOG Barnyardgrass [24]; rate 0.016 kg/ha) | ECHCG herbicidal rating (ECHOG Barnyardgrass [24]; rate 0.032 kg/ha)
2.0: CASOB herbicidal rating (CASOB Sicklepod [10]; rate 0.125 kg/ha) | Postemergence herbicidal rating CASOB (CASOB Sicklepod [11]; 0.032 kg/ha) | Postemergence herbicidal rating CASOB (CASOB Sicklepod [11]; 0.062 kg/ha) | Postemergence herbicidal rating ECHCG (ECHOG Barnyardgrass [15]; 0.008 kg/ha) | ECHCG herbicidal rating (ECHOG Barnyardgrass [24]; rate 0.062 kg/ha)
1.5: SETVI herbicidal rating (SETVI Foxtail, Green [4]; rate 0.032 kg/ha) | GLXMAW herbicidal rating (GLXMAW Soybean, Williams [18]; rate 0.062 kg/ha)
2.5: GLXMAW herbicidal rating (GLXMAW Soybean, Williams [18]; rate 0.125 kg/ha)
5.0: Postemergence herbicidal rating GLXMAW (GLXMAW Soybean, Williams [2]; 0.008 kg/ha) | AMBEL herbicidal rating (AMBEL Ragweed, Common [5]; rate 0.125 kg/ha) | IPOHE herbicidal rating ([6]; rate 0.062 kg/ha) | GALAP herbicidal rating (GALAP Galium [8]; rate 0.125 kg/ha) | Postemergence herbicidal rating ZEAMX (ZEAMX Corn, Field [9]; 0.008 kg/ha) | Postemergence herbicidal rating ABUTH (ABUTH Velvetleaf [14]; 0.008 kg/ha) | Postemergence herbicidal rating ABUTH (ABUTH Velvetleaf [14]; 0.016 kg/ha) | Postemergence herbicidal rating AMBEL (AMBEL Ragweed, Common [21]; 0.016 kg/ha)
6.0: Postemergence herbicidal rating GLXMAW (GLXMAW Soybean, Williams [2]; 0.032 kg/ha) | Postemergence herbicidal rating ORYSAT (ORYSAT Rice, Tebonnet [7]; 0.032 kg/ha) | ORYSAT herbicidal rating (ORYSAT Rice, Tebonnet [16]; rate 0.125 kg/ha) | Postemergence herbicidal rating CHEAL ([23]; 0.032 kg/ha)
4.5: Postemergence herbicidal rating GLXMAW (GLXMAW Soybean, Williams [2]; 0.016 kg/ha) | IPOHE herbicidal rating ([6]; rate 0.032 kg/ha) | Postemergence herbicidal rating ZEAMX (ZEAMX Corn, Field [9]; 0.016 kg/ha) | ECHCG herbicidal rating (ECHOG Barnyardgrass [24]; rate 0.125 kg/ha)
4.0: CASOB herbicidal rating (CASOB Sicklepod [10]; rate 0.062 kg/ha) | ABUTH herbicidal rating (ABUTH Velvetleaf [12]; rate 0.032 kg/ha) | Postemergence herbicidal rating ECHCG (ECHOG Barnyardgrass [15]; 0.016 kg/ha) | Postemergence herbicidal rating GALAP (GALAP Galium [17]; 0.062 kg/ha) | Postemergence herbicidal rating IPOHE ([20]; 0.016 kg/ha) | Postemergence herbicidal rating AMBEL (AMBEL Ragweed, Common [21]; 0.008 kg/ha) | Postemergence herbicidal rating CHEAL ([23]; 0.016 kg/ha)
